This passage reports Activity results from ChEMBL document CHEMBL1151294, “Evaluation of limonoids against the murine P388 lymphocytic leukemia cell line” (J Nat Prod, 1983).

Calls of active or inactive are those of the source. No cut-off for these calls is given here.

Holding throughout (assay type): functional, organism-based
For assay [1], the system named is P388. In words: In vivo antitumor activity against mouse P388 cells at 0.75 to 6 mg.
Assay [2] concerns P388. As to the kind of experiment: In vivo antitumor activity against mouse P388 cells at 3 to 24 mg.
Assay [3] has as its system P388. In words: In vivo antitumor activity against mouse P388 cells at 1.25 to 2.5 mg.
The subject of assay [4] is P388. In words: In vivo antitumor activity against mouse P388 cells at 5 to 20 mg.
Assay [5] has as its system P388. In words: In vivo antitumor activity against mouse P388 cells at 0.5 to 4 mg.
Assay [6] concerns P388. In words: In vivo antitumor activity against mouse P388 cells at 3.7 to 7.5 mg.
Assay [7] relates to P388. In words: In vivo antitumor activity against mouse P388 cells at 0.5 to 8 mg.
For assay [8], the system named is P388. As to the kind of experiment: In vivo antitumor activity against mouse P388 cells at 0.03 to 2 mg.
For assay [9], the system named is P388. As to the kind of experiment: In vivo antitumor activity against mouse P388 cells at 1.25 to 10 mg.
Assay [10] concerns P388. In words: In vivo antitumor activity against mouse P388 cells at 0.25 to 2 mg.
For assay [11], the system named is P388. As to the kind of experiment: In vivo antitumor activity against mouse P388 cells at 2 to 200 mg.
The subject of assay [12] is P388. In words: In vivo antitumor activity against mouse P388 cells at 2.5 to 40 mg.
Assay [13] deals with P388. In words: In vivo antitumor activity against mouse P388 cells at 0.01 to 2.4 mg.
Assay [14] deals with P388. In words: In vivo antitumor activity against mouse P388 cells at 0.37 to 6 mg.
For assay [15], the system named is P388. In words: In vivo antitumor activity against mouse P388 cells at 0.75 to 12 mg.
In assay [16] the test system is P388. In words: In vivo antitumor activity against mouse P388 cells at 1.5 to 24 mg.
Assay [17] deals with P388. In words: In vivo antitumor activity against mouse P388 cells at 1.5 to 12 mg.

Turning to `CC1(C)O[C@@H](CC(=O)O)[C@]23CO[C@H](C(=O)[C@]4(C)[C@@H]2CC[C@@]2(C)[C@@H](c5ccoc5)OC(=O)[C@H]5O[C@]524)[C@H]13`, in [1], the outcome was inactive.

For `CC(=O)O[C@@H]1C[C@@]2(C)[C@H](c3ccoc3)C[C@H]3O[C@]32[C@]2(C)C(=O)C(O)=C3C(C)(C)C(=O)C=C[C@]3(C)C12` (stereo partly drawn), the result in assay [2] was inactive.

For the compound `CC(=O)O[C@@H]1C[C@H](O)[C@@]23CO[C@H](O)[C@]1(C)[C@@H]2C[C@@H](O)[C@]1(C)[C@@H]3C(=O)[C@H](O)[C@@]2(C)[C@H](c3ccoc3)C[C@H]3O[C@@]321`, the result in [3] was inactive. Further, in assay [4], the Activity result is “Toxic”.

Take `CC1(C)O[C@H]2CC(=O)OC[C@@]23[C@H]1CC(=O)[C@@]1(C)C2=CC(=O)O[C@H](c4ccoc4)[C@]2(C)CC[C@@H]13`: the result in [5] was inactive.

Turning to `C=C1[C@@H]([C@@]2(C)[C@@H](OC(C)=O)CC(=O)O[C@](C)(COC(C)=O)[C@@H]2C(=O)OC)[C@@H](OC=O)[C@H](OC(=O)[C@H](O)[C@H](C)CC)[C@@]2(C)[C@H](c3ccoc3)CC(=O)[C@]12O`, the outcome in [6] was inactive.

`CC1(C)O[C@H]2CC(=O)OC[C@]23[C@H]2CC[C@@]4(C)[C@@H](c5ccoc5)OC(=O)[C@H]5O[C@]54[C@]2(C)[C@@H](O)C[C@@H]13`: the outcome in assay [1] was inactive.

With `CC1(C)C(=O)CC[C@]2(C)[C@H]3CC[C@@]4(C)[C@H](c5ccoc5)OC(=O)[C@H]5O[C@]54[C@]3(C)C(=O)C[C@@H]12`, the result in assay [7] was inactive.

Take `C[C@H]1CC[C@@]23COC(=O)C2=CCC[C@@H]3[C@@]12C[C@H](c1ccoc1)OC2=O`: the result in [8] was inactive.

As to `CC(=O)O[C@H]1[C@@H](OC(C)=O)[C@]2(C)[C@H](CC[C@]3(C)[C@H](c4ccoc4)C[C@@H]4O[C@]423)[C@@]2(C)C=CC(=O)OC(C)(C)[C@H]12`, the result in [9] was inactive.

For the compound `CC1(C)O[C@H]2CC(=O)OC[C@@]23C1=C(O)C(=O)[C@]1(C)[C@@H]3CC[C@@]2(C)[C@@H](c3ccoc3)OC(=O)[C@H]3O[C@]321`, the outcome in [5] was inactive.

For the compound `CC(=O)OC1=C2C(C)(C)O[C@H]3CC(=O)OC[C@@]23[C@H]2CC[C@@]3(C)[C@@H](c4ccoc4)OC(=O)[C@H]4O[C@]43[C@]2(C)C1=O`, in [5], the outcome was inactive.

Consider `CC1(C)O[C@@H](CC(=O)O)[C@]23CO[C@H](C(=O)[C@]4(C)[C@@H]2CC[C@@]2(C)[C@H]([C@H]5CCOC5)OC(=O)[C@H]5O[C@]524)[C@H]13`, for which, in assay [5], the result was inactive.

On to `CC(=O)O[C@@H]1C[C@H](O)[C@@]23CO[C@H](O)[C@]1(C)[C@@H]2C[C@@H](O)[C@]1(C)[C@@H]3C(=O)C[C@@]2(C)[C@H](c3ccoc3)C[C@H]3O[C@]312`, for which the outcome in assay [10] was inactive.

With `C=C1[C@@H]2CC[C@@]3(C)[C@H](c4ccoc4)OC(=O)C[C@]13O[C@H]1CC(=O)C(C)(C)[C@H](CC(=O)OC)[C@]12C`, the outcome in assay [11] was inactive.

On to `CC(=O)O[C@@H]1C[C@H]2C(C)(C)C(=O)C=C[C@]2(C)[C@H]2CC[C@]3(C)C(=CC(=O)O[C@H]3c3ccoc3)[C@@]21C`, for which the result in [12] was inactive.

Consider `CC(=O)O[C@@H]1C[C@H](O)[C@@]23CO[C@H](O)[C@]1(C)[C@@H]2C[C@@H](O)[C@@]1(C)[C@@H]2C(=O)C[C@@H](c4ccoc4)[C@]2(C)CC(=O)[C@@H]13`, for which, in assay [13], the result was inactive.

Turning to `COC(=O)[C@@]1(C)CCC[C@]2(C)C3=C(CC[C@@H]12)C(=O)c1occc1CC3`, in [14], the result was inactive.

For `C[C@]12C[C@H](c3ccoc3)OC(=O)[C@@H]1CC[C@@]13COC(=O)C1=CCC[C@@H]32`, in [10], the outcome was inactive.

In the case of `CC(=O)OC1[C@@H]2[C@@]3(C)C=C[C@@H](O)[C@](C)(OC(C)=O)[C@@H]3C[C@@H](OC(C)=O)[C@@]2(C)[C@]23O[C@@H]2CC(c2ccoc2)[C@]3(C)[C@H]1OC(=O)C(C)C` (single isomer, unassigned), the outcome in assay [15] was inactive.

`CC1(C)C(=O)C=C[C@]2(C)[C@H]3CC[C@@]4(C)[C@H](c5ccoc5)OC(=O)[C@H]5O[C@]54[C@]3(C)[C@H](O)C[C@@H]12`: the result in assay [16] was inactive.

Turning to `CC1(C)OC(=O)C=C[C@]2(C)[C@H]3CC[C@]4(C)[C@H](c5ccoc5)C[C@@H]5O[C@@]54[C@]3(C)C(=O)[C@H](O)[C@@H]12`, the outcome in [9] was inactive.

Consider `CC1(C)C(=O)C=C[C@]2(C)[C@H]3CC[C@@]4(C)[C@H](c5ccoc5)OC(=O)[C@H]5O[C@]54[C@]3(C)C(=O)C[C@@H]12`, for which the result in assay [16] was inactive.

As to `CC(C)(O)[C@@H]1CC(=O)[C@]2(C)[C@H](CC[C@@]3(C)[C@@H](c4ccoc4)OC(=O)[C@H]4O[C@]432)[C@@]1(C)/C=C\C(=O)O`, the result in [1] was inactive.

Turning to `CC(=O)O[C@@H]1C[C@@H]2[C@](C)(C=C[C@@H](O)[C@]2(C)OC(C)=O)[C@H]2C(=O)[C@H](OC(C)=O)[C@@]3(C)C(c4ccoc4)C[C@H]4O[C@@]43[C@@]21C` (single isomer, unassigned), the result in assay [15] was inactive.

With `CC1=C2CC(=O)O[C@H](c3ccoc3)[C@]2(C)CC[C@@H]1[C@@]12COC(=O)C[C@@H]1OC(C)(C)C2CC(=O)O` (stereo partly drawn), the result in [5] was inactive.

For the compound `CC1(C)O[C@H]2CC(=O)OC[C@]23[C@H]2CC[C@@]4(C)[C@@H](c5ccoc5)OC(=O)[C@H]5O[C@]54[C@]2(C)[C@@H](OC(=O)CCl)C[C@@H]13`, the result in [7] was inactive.

On to `CC1(C)O[C@H]1[C@H]1C[C@@H]([C@@H]2CC[C@]3(C)C4=CC[C@H]5C(C)(C)C(=O)CC[C@]5(C)[C@H]4CC[C@@]23C)[C@H](O)O1`, for which the result in assay [17] was inactive.
